From the METLIN SMRT retention time set (Domingo-Almenara et al. 2019) come the findings set out here.

This data set is described as follows: gradient 5% acetonitrile 3 min, to 50% in 2 min, to 85% in 15 min, held 3 min, 100 µL/min. The note with it: column: Zorbax Extend-C18 2.1 x 50 mm; eluents: water / acetonitrile, 0.1% formic acid. The gist of the method: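 Standards, all pure, were combined into mixtures of ~100 molecules and run at 100 μL/min on a Zorbax Extend-C18 column (2.1 × 50 mm, 1.8 μm) with water and acetonitrile, each containing 0.1% formic acid. A coupled quadrupole time-of-flight mass spectrometer operated in positive and negative ionization mode. Retention time values come from computationally picked adduct peaks, each inspected manually.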
In turn, `O=C(CN1C(=O)CN(C(=O)NCc2ccccc2)c2ccccc21)NC1CCCc2ccccc21` (centres undefined) displayed an RP-LC retention time of 892 s. The value for `Cc1cccc(CNC(=O)CN2CCN(Cc3cccc(Cl)c3)C2=O)c1` was 847 s; that for `O=C(NC1CCCc2ccccc21)C1CCN(Cc2noc(-c3ccc(F)cc3)n2)CC1` (centres undefined) was 713 s. Regarding `COc1ccccc1-n1ccn(Cc2nc(-c3cccc(F)c3)no2)c(=O)c1=O`, the RP-LC retention time stood at 861 s.

As to `Cc1ccc(NC(=O)C2CCc3nc(N4CCOCC4)ncc3C2)cc1Cl` (centres undefined), the RP-LC retention time was determined as 880 s. Compound `CC(C)NC(=O)c1ccc(OCC2CCCN(C(=O)c3ccc(Cl)cc3)C2)cc1` (centres undefined) had an RP-LC retention time of 881 s.

In turn, `Cc1cc(S(=O)(=O)N2CCC(n3cnnc3C3CC3)CC2)ccc1Cl` had an RP-LC retention time of 784 s. Take `CCOc1ccc(N(C)C(=O)C2CCN(S(=O)(=O)c3ccc4c(c3)NC(=O)CO4)CC2)cc1`: the RP-LC retention time turned out to be 784 s.

The compound `CC(C)(C)c1ccc(C(=O)Nc2ccc3nnc(C4CCC4)n3c2)cc1` yielded an RP-LC retention time of 772 s. For `Cc1nc(CN2CC(c3nc(-c4cccs4)no3)C2)cs1`, the RP-LC retention time was 568 s. On to `Cc1nc(CCNC(=O)C2CCN(S(=O)(=O)c3ccccc3C(F)(F)F)CC2)cs1`, for which the RP-LC retention time was 753 s. Take `Cc1nn(-c2ccccc2)c2c1N(CCCC(=O)NCCN(C)C)C(=O)CS2`: the RP-LC retention time came to 602 s. Consider `Cc1ccc(S(=O)(=O)NCC2CCN(C(=O)Oc3ccccc3)CC2)s1`, for which the RP-LC retention time came to 576 s. The result for `CCc1nc(-c2cccc(C)c2)c(-c2ccnc(NC(=O)c3ccccc3)c2)s1` reads 1200 s; that for `O=C(Nc1ccc2c(c1)OCCO2)NC1CCN(c2ccccc2)C1=O` (centres undefined), 720 s. In turn, `COc1ccc(Br)cc1C1C(C(=O)N2CCOCC2)=C(C)NC2=C1C(=O)CCC2` (centres undefined) had an RP-LC retention time of 660 s. Compound `O=C(Cn1nc2c3cc(-c4ccc(F)cc4)nn3ccn2c1=O)NCc1ccco1` had an RP-LC retention time of 796 s. In turn, `CCN1C(=O)C(C)(C(=O)NCc2ccc(Br)cc2)Oc2cccnc21` (centres undefined) had an RP-LC retention time of 916 s.

The compound `CCOC(=O)c1c(C)oc2ncnc(NCCc3c[nH]c4ccccc34)c12` yielded an RP-LC retention time of 1050 s. Turning to `O=C(N[C@H]1C[C@@H]2C[C@H]1N(C(=O)CSc1ccccc1)C2)c1ccccc1`, the RP-LC retention time is 786 s.

`CC(C)n1c(-c2cccc(C(=O)NCc3ccco3)c2)nc2cccnc21` returned an RP-LC retention time of 751 s.

Turning to `Cc1cccc(NC(=O)C2CCCN2S(=O)(=O)c2cc3c(cc2C)NC(=O)CO3)c1` (centres undefined), the RP-LC retention time came out at 763 s. The result for `Cc1ccc(N2CC(c3noc(-c4ccccc4)n3)CC2=O)cc1` (centres undefined) reads 819 s; that for `Cc1cc(C2CCCN2C(=O)c2ccc(C)s2)no1` (centres undefined), 770 s; that for `O=C(NCc1ccc(F)cc1Cl)c1ccc2c(c1)ncn2CCN1CCCC1`, 598 s.

The compound `CN=C(NC#N)NCCSCc1csc(N=C(N)N)n1` showed an RP-LC retention time of 616 s. The result for `O=S(=O)(c1cccc(F)c1)N1CCN(c2cnn3c(C4CC4)nnc3c2)CC1` reads 626 s; that for `CNC(=O)C1CCCN(c2nc3ncn(CC(=O)Nc4cc(F)ccc4F)c(=O)c3s2)C1` (centres undefined), 641 s; that for `O=C(NCCc1c[nH]c2ccc(Cl)cc12)C1CCN(c2ccncc2)CC1`, 643 s. Compound `CCc1noc(NC(C)=O)c1-c1ccc(C)c(S(=O)(=O)NCc2cccs2)c1` came in with an RP-LC retention time of 783 s. As for `O=C(c1ccco1)N1CCC(OCc2nc(C3CC3)no2)CC1`, the RP-LC retention time was 732 s. The result for `CC(C)c1nc2c(c(=O)n1CC(=O)NCc1ccccc1)CN(Cc1ccccc1)CC2` reads 659 s; that for `O=C(NCCc1csc(-c2ccccc2)n1)C1CCN(S(=O)(=O)c2ccccc2F)CC1`, 893 s. The result for `CC(=O)NCc1ccc(-c2noc(-c3cc(F)ccc3Cl)n2)s1` reads 879 s. Consider `COc1cc(NC(=O)C2CC(=O)N(c3ccc4c(c3)CCN4C(C)=O)C2)cc(OC)c1` (centres undefined), for which the RP-LC retention time worked out at 694 s.

For `O=C(C1CCOC1)N1CCCn2nc(-c3cccs3)cc2C1` (centres undefined), the RP-LC retention time was 678 s. The result for `COc1ccc(-c2nc(Cn3cnc4ccccc4c3=O)no2)c(OC)c1` reads 765 s; that for `O=C1NC2(CCN(C(=O)c3ccc4ccccc4c3)CC2)N=C1c1ccccc1`, 859 s. Compound `CN(C)S(=O)(=O)c1ccc2c(c1)N(CC(=O)NCc1ccco1)C(=O)C1CCCCN21` (centres undefined) gave an RP-LC retention time of 820 s. The value for `CCCn1c(=O)c(C)nc2cc(-c3noc(-c4ccc(OC)cc4)n3)ccc21` was 1160 s; that for `CCOc1ccc(NC(=O)N2CCC(CN3CCCC(C)C3)CC2)cc1` (centres undefined) was 639 s; that for `O=C(NC1CC1)C1CCN(c2cncnc2N2CCCCC2)CC1` was 607 s. The result for `COC(=O)CSc1nnc(-c2sc3ncccc3c2N)n1C1CC1` reads 694 s; that for `CN(C)c1cccc(C(=O)N2CCN(c3cc(-c4ccc(Cl)cc4)[nH]n3)CC2)c1`, 820 s; that for `CC(C)(C)CC(C)(C)NC(=O)C1CCN(C(=O)c2ccccc2F)CC1`, 920 s. In turn, `Cc1ccn2cc(C(=O)NCc3cc(F)cc(F)c3)nc2c1` showed an RP-LC retention time of 678 s. The result for `CC1CCC(NC(=O)C2CCCN(C(=O)c3cc(-c4ccncc4)n[nH]3)C2)CC1` (centres undefined) reads 632 s.

For `Cc1cccc(-c2nc3nc(C)cc(N4CCN(c5ccccn5)CC4)n3n2)c1`, the RP-LC retention time was 638 s. The compound `CCn1cc(-c2nc(C)c(C(=O)Nc3cccc(C)c3)s2)c2cccnc21` came in with an RP-LC retention time of 971 s. The value for `Cc1cc(C)cc(NC(=O)C2CCN(S(=O)(=O)c3ccc4c(c3)CCCC(=O)N4)CC2)c1` was 834 s; that for `Cn1nccc1-c1cccc(-c2noc(-c3cccc(NC(=O)c4ccco4)c3)n2)c1` was 991 s; that for `CN(C)C(=O)CSc1ncnc2sccc12` was 627 s.

`COC1C(=O)N(c2cccc(F)c2)C12CCN(Cc1cn(C)c3ccccc13)CC2` (centres undefined): the RP-LC retention time was determined as 751 s. `COc1ccccc1C(=O)Nc1cccn2nc(C(C)C)nc12` returned an RP-LC retention time of 1020 s. The compound `CC(C)CN1Cc2ccccc2-n2ccnc2C12CCN(C(=O)c1ccccn1)CC2` registered an RP-LC retention time of 631 s.

`CCc1ccc(-c2cc(C(=O)N3CCCN(c4ccc(=O)n(-c5ccc(C)cc5)n4)CC3)[nH]n2)cc1` yielded an RP-LC retention time of 873 s. The result for `Cc1ccn2c(Nc3ccc4c(c3)OCCO4)c(-c3ccc(O)cc3)nc2c1` reads 719 s.

`O=C(CC1CCN(C(=O)C2CCCCC2)CC1)NCc1ccccn1` had an RP-LC retention time of 596 s.

Turning to `O=C(NCCOc1ccc(F)cc1)NCc1ccc(Cl)cc1`, the RP-LC retention time came to 850 s.

Compound `COc1ccc(NC(=O)C2CC2)c2ccccc12` returned an RP-LC retention time of 729 s.

`COc1ccc(NC(=O)c2c(N3CCCC3=O)c3cc(F)ccc3n2C)cc1`: the RP-LC retention time is 922 s. The value for `COc1ccc(C2=NC3(CCN(C(C)C)CC3)NC(c3ccccc3O)C2)cc1` (centres undefined) was 592 s; that for `CN(CC(O)COc1ccc2c(c1)OCO2)C1CCCCC1` (centres undefined) was 567 s; that for `CCN1c2ccccc2C(=O)NC12CCN(C(=O)c1cc(C)cc(C)c1)CC2` was 868 s. In the case of `CC1(C(=O)NCc2ccccc2)CN(S(=O)(=O)c2ccccc2)CC(=O)N1C1CC1` (centres undefined), the RP-LC retention time was determined as 784 s. The value for `CC(C)n1c(CC2CCN(C(=O)c3ccccc3Cl)C2)nc2cccnc21` (centres undefined) was 622 s; that for `Cc1oc2ncnc(N3CCOCC3)c2c1C(=O)N1CCN(c2ccccn2)CC1` was 567 s; that for `COc1ccc(CNC(=O)C2CCN(c3cc(N4CCSCC4)ncn3)CC2)cc1` was 656 s. The result for `CC(=O)Nc1nc(-c2ccc3c(c2)NC(=O)C(C)O3)c(C)s1` (centres undefined) reads 701 s; that for `CC1CCCN(CCCNC(=O)c2nnc(-c3ccc(S(=O)(=O)N4CCOCC4)cc3)o2)C1` (centres undefined), 634 s. The result for `Cc1nc(CCNC(=O)[C@H]2CCCN2C(=O)c2cccc(F)c2)cs1` reads 642 s; that for `COc1ccc(C2Cn3nc(-c4nc(C(C)(C)C)no4)cc3CO2)cc1` (centres undefined), 611 s; that for `COc1ccc2cc(C(=O)N3CCC(C(C)C(=O)NCCc4c[nH]c5ccccc45)CC3)[nH]c2c1` (centres undefined), 818 s. Compound `O=C(Cn1ncn2nc(-c3ccccc3)cc2c1=O)N1CCN(c2ccccn2)CC1` came in with an RP-LC retention time of 620 s.

In turn, `COc1cccc(S(=O)(=O)N2CCC(Cc3nncn3C(C)C)C2)c1` (centres undefined) returned an RP-LC retention time of 664 s.

For the compound `CCCc1ccc(S(=O)(=O)N2CCCC2c2nc(-c3ccc(C)cc3)no2)cc1` (centres undefined), the RP-LC retention time worked out at 1320 s. In the case of `COc1cccc(NC(=O)N2CC(C)Oc3ccc(C)cc32)c1` (centres undefined), the RP-LC retention time was found to be 654 s. The result for `CC(C)c1ccc(NC(=O)C(=O)NCCCN2CCN(c3ccccc3)CC2)cc1` reads 631 s; that for `CNC(=O)O[C@H]1COc2ccc(N3CCN(C4COC4)CC3)cc2[C@@H]1NC(=O)c1ccc(F)cc1`, 652 s.
